Results: ChEMBL document CHEMBL1909294, “Translating clinical findings into knowledge in drug safety evaluation--drug induced liver injury prediction system (DILIps)” (PLoS Comput Biol, 2011)

How the values were obtained:
[1] = system: Hepatotoxicity;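 on HepSE bilirubinemia: bilirubinemia hepatic side effect score drawn from the DILIps training data, a prediction system for drug-induced liver injury; call rule not given here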;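 on HepSE cholecystitis: Cholecystitis-related hepatic side effect score drawn from the DILIps (drug-induced liver injury prediction) training data set; call rule not given here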;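 on HepSE cholelithiasis: hepatic side effect score for cholelithiasis, drawn from the DILIps training data for predicting drug-induced liver injury; call rule not given here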;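 on HepSE cirrhosis: cirrhosis hepatic side effect score taken from the DILIps (drug-induced liver injury prediction) training set; call rule not given here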;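 on HepSE elevated liver function tests: hepatic side effect score for raised liver function tests, as recorded in the DILIps training set used for predicting drug-induced liver injury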; on HepSE hepatic failure: call rule not given here;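 on HepSE hepatomegaly: hepatic side effect score for hepatomegaly, taken from the training set of the DILIps drug-induced liver injury prediction system; call rule not given here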
[2] = system: Hepatotoxicity; remark: listed apart in the source;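 on HepSE bilirubinemia: bilirubinemia hepatic side effect score drawn from the DILIps training data, a prediction system for drug-induced liver injury; call rule not given here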;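 on HepSE cholecystitis: Cholecystitis-related hepatic side effect score drawn from the DILIps (drug-induced liver injury prediction) training data set; call rule not given here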;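 on HepSE cholelithiasis: hepatic side effect score for cholelithiasis, drawn from the DILIps training data for predicting drug-induced liver injury; call rule not given here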;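 on HepSE cirrhosis: cirrhosis hepatic side effect score taken from the DILIps (drug-induced liver injury prediction) training set; call rule not given here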;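 on HepSE elevated liver function tests: hepatic side effect score for raised liver function tests, as recorded in the DILIps training set used for predicting drug-induced liver injury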; on HepSE hepatic failure: call rule not given here;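 on HepSE hepatomegaly: hepatic side effect score for hepatomegaly, taken from the training set of the DILIps drug-induced liver injury prediction system; call rule not given here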
[3] = system: Hepatotoxicity; remark: listed apart in the source;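 on HepSE bilirubinemia: bilirubinemia hepatic side effect score drawn from the DILIps training data, a prediction system for drug-induced liver injury; call rule not given here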;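 on HepSE cholecystitis: Cholecystitis-related hepatic side effect score drawn from the DILIps (drug-induced liver injury prediction) training data set; call rule not given here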;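 on HepSE cholelithiasis: hepatic side effect score for cholelithiasis, drawn from the DILIps training data for predicting drug-induced liver injury; call rule not given here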;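 on HepSE cirrhosis: cirrhosis hepatic side effect score taken from the DILIps (drug-induced liver injury prediction) training set; call rule not given here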;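 on HepSE elevated liver function tests: hepatic side effect score for raised liver function tests, as recorded in the DILIps training set used for predicting drug-induced liver injury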; on HepSE hepatic failure: call rule not given here
[4] = system: Hepatotoxicity; remark: listed apart in the source;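 on HepSE bilirubinemia: bilirubinemia hepatic side effect score drawn from the DILIps training data, a prediction system for drug-induced liver injury; call rule not given here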;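 on HepSE cholecystitis: Cholecystitis-related hepatic side effect score drawn from the DILIps (drug-induced liver injury prediction) training data set; call rule not given here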;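 on HepSE cholelithiasis: hepatic side effect score for cholelithiasis, drawn from the DILIps training data for predicting drug-induced liver injury; call rule not given here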;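 on HepSE cirrhosis: cirrhosis hepatic side effect score taken from the DILIps (drug-induced liver injury prediction) training set; call rule not given here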;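 on HepSE elevated liver function tests: hepatic side effect score for raised liver function tests, as recorded in the DILIps training set used for predicting drug-induced liver injury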; on HepSE hepatic failure: call rule not given here
[5] = system: Hepatotoxicity; remark: listed apart in the source; on HepSE hepatic failure: call rule not given here
[6] = system: Hepatotoxicity; remark: listed apart in the source; on HepSE hepatic failure: call rule not given here
[7] = system: Hepatotoxicity; remark: listed apart in the source
[8] = system: Hepatotoxicity; remark: listed apart in the source
[9] = system: Hepatotoxicity; remark: listed apart in the source
[10] = system: Hepatotoxicity; remark: listed apart in the source
[11] = system: Hepatotoxicity; remark: listed apart in the source
[12] = system: Hepatotoxicity; remark: listed apart in the source
[13] = system: Hepatotoxicity; remark: listed apart in the source
[14] = system: Hepatotoxicity; remark: listed apart in the source

Row | Molecule | HepSE_bilirubinemia [1] | HepSE_cholecystitis [2] | HepSE_cholelithiasis [3] | HepSE_cirrhosis [4] | HepSE_elevated liver function tests [5] | HepSE_hepatic failure [6] | HepSE_hepatic necrosis [7] | HepSE_hepatitis [8] | HepSE_hepatomegaly [9] | HepSE_jaundice [10] | HepSE_liver disease [11] | HepSE_liver fatty [12] | HepSE_liver function tests abnormal [13] | HepSE_Combined Scores [14] | also measured
1 | CC(=O)CC(c1ccccc1)c1c(O)c2ccccc2oc1=O (configuration not stated) [WARFARIN] | 0 | 0 | 0 | 0 | 0 | 0 | 0 | 1 | 0 | 1 | 0 | 0 | 0 | 2 | –
2 | COc1cc(C(=O)NS(=O)(=O)c2ccccc2C)ccc1Cc1cn(C)c2ccc(NC(=O)OC3CCCC3)cc12 [ZAFIRLUKAST] | 1 | 0 | 0 | 0 | 1 | 1 | 0 | 1 | 0 | 0 | 0 | 0 | 0 | 4 | –
3 | Nc1ccn([C@H]2CC[C@@H](CO)O2)c(=O)n1 [ZALCITABINE] | – | – | – | – | – | – | – | – | – | – | – | – | – | – | HepSE_bilirubinemia ([1]; Liver): 1; HepSE_cholecystitis ([2]; Liver): 1; HepSE_cholelithiasis ([3]; Liver): 0; HepSE_cirrhosis ([4]; Liver): 0; HepSE_elevated liver function tests ([5]; Liver): 0; HepSE_hepatic failure ([6]; Liver): 0; HepSE_hepatic necrosis ([7]; Liver): 0; HepSE_hepatitis ([8]; Liver): 1; HepSE_hepatomegaly ([9]; Liver): 1; HepSE_jaundice ([10]; Liver): 1; HepSE_liver disease ([11]; Liver): 0; HepSE_liver fatty ([12]; Liver): 0; HepSE_liver function tests abnormal ([13]; Liver): 0; HepSE_Combined Scores ([14]; Liver): 5
4 | CCN(C(C)=O)c1cccc(-c2ccnc3c(C#N)cnn23)c1 [ZALEPLON] | 1 | 0 | 1 | 0 | 0 | 0 | 0 | 0 | 0 | 0 | 0 | 0 | 1 | 3 | –
5 | CC(=O)N[C@H]1[C@H]([C@H](O)[C@H](O)CO)OC(C(=O)O)=C[C@@H]1N=C(N)N [ZANAMIVIR] | 0 | 0 | 0 | 0 | 0 | 0 | 0 | 0 | 0 | 0 | 0 | 0 | 0 | 0 | –
6 | Cc1cn([C@H]2C[C@H](N=[N+]=[N-])[C@@H](CO)O2)c(=O)[nH]c1=O [ZIDOVUDINE] | 1 | 0 | 0 | 0 | 0 | 0 | 0 | 1 | 1 | 1 | 0 | 0 | 0 | 4 | –
7 | O=C1Cc2cc(CCN3CCN(c4nsc5ccccc45)CC3)c(Cl)cc2N1 [ZIPRASIDONE] | 0 | 0 | 0 | 0 | 0 | 0 | 0 | 1 | 1 | 1 | 0 | 1 | 0 | 4 | –
8 | O.O=P(O)(O)C(O)(Cn1ccnc1)P(=O)(O)O [ZOLEDRONIC ACID] | 0 | 0 | 0 | 0 | 0 | 0 | 0 | 0 | 0 | 0 | 0 | 0 | 1 | 1 | –
9 | CN(C)CCc1c[nH]c2ccc(C[C@H]3COC(=O)N3)cc12 [ZOLMITRIPTAN] | 0 | 0 | 0 | 0 | 0 | 0 | 0 | 0 | 0 | 1 | 1 | 0 | 0 | 2 | –
10 | Cc1ccc(-c2nc3ccc(C)cn3c2CC(=O)N(C)C)cc1 [ZOLPIDEM] | 1 | 0 | 0 | 0 | 0 | 0 | 0 | 0 | 0 | 0 | 0 | 0 | 0 | 1 | –
11 | NS(=O)(=O)Cc1noc2ccccc12 [ZONISAMIDE] | 0 | 1 | 1 | 0 | 0 | 0 | 0 | 0 | 0 | 1 | 0 | 0 | 0 | 3 | –
12 | CN1CCN(C(=O)OC2c3nccnc3C(=O)N2c2ccc(Cl)cn2)CC1 (configuration not stated) [ZOPICLONE] | 0 | 0 | 1 | 0 | 0 | 0 | 0 | 1 | 1 | 0 | 0 | 0 | 0 | 3 | –
13 | AURANOFIN | 0 | 0 | 0 | 0 | 0 | 0 | 0 | 0 | 0 | 1 | 0 | 0 | 0 | 1 | –
